Experimental data published in PMC8041284, “Tunable Methacrylamides for Covalent Ligand Directed Release Chemistry” (Journal of the American Chemical Society, 2021).

Each compound was assayed against BTK (Homo sapiens, UniProt Q06187) (assay: biochemical). Conditions: read-out: BTK inhibition (%).
Chain of BTK (Q06187 402-655 limits assumed): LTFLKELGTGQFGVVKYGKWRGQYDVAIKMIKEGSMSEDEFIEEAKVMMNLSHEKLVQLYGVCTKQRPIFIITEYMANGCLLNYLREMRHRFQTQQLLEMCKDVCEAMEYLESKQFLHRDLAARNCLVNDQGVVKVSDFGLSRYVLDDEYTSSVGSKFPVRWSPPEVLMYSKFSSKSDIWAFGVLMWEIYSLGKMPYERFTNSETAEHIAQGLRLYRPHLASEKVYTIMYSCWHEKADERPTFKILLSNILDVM

Row | Compound | inhibition at 10 µM
1 | CCC(=O)O[C@H]1CC[C@H]2[C@@H]3CC[C@H]4CC(=O)[C@H](C)C[C@]4(C)[C@H]3CC[C@]12C [PCM-0215061] | -14%
2 | CC(=O)O[C@H]1CC[C@H]2[C@@H]3CCC4=CC(=O)CCC4=C3C=C[C@]12C [PCM-0215062] | 2.3%
3 | C[C@]12C=CC(=O)C=C1CC[C@@H]1[C@@H]2CC[C@@]2(C)[C@H]1CC[C@]2(C)O [PCM-0215063] | -11.7%

Same assay, conditions: read-out: BTK inhibition (%), 0.75 uM BTK, […] probe 3l, 15 min preincubation

Row | Compound | inhibition at 10 µM
4 | CC(C)=CCC[C@](C)(O[C@@H]1O[C@H](CO)[C@@H](O)[C@H](O)[C@H]1O)[C@H]1CC[C@]2(C)[C@@H]1[C@H](O)C[C@@H]1[C@@]3(C)CC[C@H](O[C@@H]4O[C@H](CO)[C@@H](O)[C@H](O)[C@H]4O[C@@H]4O[C@H](CO)[C@@H](O)[C@H](O)[C@H]4O)C(C)(C)[C@@H]3CC[C@]12C [PCM-0215020] | 21%
5 | COc1ccc([C@@H]2OC[C@H]3[C@@H]2CO[C@@H]3c2ccc(O[C@@H]3O[C@H](CO)[C@@H](O)[C@H](O)[C@H]3O)c(OC)c2)cc1OC [PCM-0215021] | -6.2%
6 | CC(=O)O[C@H]1C(=O)[C@@]2(C)[C@H]([C@H](OC(=O)c3ccccc3)[C@]3(O)C[C@H](O)C(C)=C1C3(C)C)[C@]1(OC(C)=O)CO[C@@H]1C[C@@H]2O [PCM-0215022] | -17.1%
7 | Cc1ccc2oc(=O)ccc2c1 [PCM-0215023] | -3.9%
8 | OC[C@H]1O[C@@H](Oc2c(O)cc(O)cc2/C=C/c2ccc(O)cc2)[C@H](O)[C@@H](O)[C@@H]1O [PCM-0215025] | 9.7%
9 | OC[C@H]1O[C@@H](O[C@@H]2OC=C[C@H]3[C@H](O)[C@@H]4O[C@]4(CO)[C@@H]23)[C@H](O)[C@@H](O)[C@@H]1O [PCM-0215028] | 26.2%
10 | CC(C)=CCC[C@](C)(O[C@@H]1O[C@H](CO)[C@@H](O)[C@H](O)[C@H]1O)[C@H]1CC[C@]2(C)[C@@H]1[C@H](O)C[C@@H]1[C@@]3(C)CC[C@H](O)C(C)(C)[C@@H]3[C@@H](O[C@@H]3O[C@H](CO)[C@@H](O)[C@H](O)[C@H]3O)C[C@]12C [PCM-0215029] | 14%
11 | CC(C)=CCC[C@](C)(O[C@@H]1O[C@H](CO[C@@H]2O[C@H](CO)[C@@H](O)[C@H](O)[C@H]2O)[C@@H](O)[C@H](O)[C@H]1O)[C@H]1CC[C@]2(C)[C@@H]1[C@H](O)C[C@@H]1[C@@]3(C)CC[C@H](O[C@@H]4O[C@H](CO)[C@@H](O)[C@H](O)[C@H]4O[C@@H]4O[C@H](CO)[C@@H](O)[C@H](O)[C@H]4O)C(C)(C)[C@@H]3CC[C@]12C [PCM-0215030] | -0.7%
12 | COc1cc(C(=O)O)cc(OC)c1OC [PCM-0215032] | -21%
13 | COC(=O)c1cc(OC)c(OC)c(OC)c1 [PCM-0215033] | -13.2%
14 | OC[C@@H](O)[C@H](O)[C@H](O)[C@@H](O)CO [PCM-0215034] | -10.1%
15 | C[C@H](CCC(=O)NCCS(=O)(=O)O)[C@H]1CC[C@H]2[C@@H]3[C@H](O)C[C@@H]4C[C@H](O)CC[C@]4(C)[C@H]3CC[C@]12C [PCM-0215035] | -0.8%
16 | COC(=O)c1ccc(O)c(O)c1 [PCM-0215036] | -15.6%
17 | COC1[C@@H](O)[C@@H](O)C(O)[C@H](O)[C@H]1O (some centres unmarked) [PCM-0215037] | -11%
18 | OC[C@H]1OC(O)[C@H](O)[C@@H](O)[C@H]1O (some centres unmarked) [PCM-0215038] | -23.3%
19 | CCOC(=O)/C=C/c1ccc(O)c(OC)c1 [PCM-0215040] | -8.3%
20 | OCc1ccc(O)cc1 [PCM-0215041] | 9.3%
21 | COc1cc(CO)ccc1O [PCM-0215042] | 0%
22 | CC(C)(O)[C@H]1CC[C@@](C)([C@H]2[C@@H](O)C[C@@]3(C)[C@@H]4C[C@H](O)[C@H]5C(C)(C)[C@@H](O)CC[C@@]56C[C@@]46CC[C@]23C)O1 [PCM-0215043] | -14.8%
23 | O=C1CCC[C@@H]2[C@H]3CCCN4CCC[C@H](CN12)[C@@H]34 [PCM-0215044] | -16.3%
24 | CC(C)(C)OC(=O)N[C@@H]1CCCC[C@H]1N [PCM-0215045] | -24.1%
25 | CC1(C)CC[C@]2(C(=O)O)CC[C@]3(C)C(=CC[C@@H]4[C@@]5(C)CC[C@H](O)[C@@](C)(CO)[C@@H]5CC[C@]43C)[C@@H]2C1 [PCM-0215046] | 15.6%

Row | Compound | inhibition at 10 µM
26 | C=C(C)[C@@H]1CC[C@]2(C(=O)O)CC[C@]3(C)[C@H](CC[C@@H]4[C@@]5(C)CCC(=O)C(C)(C)[C@@H]5CC[C@]43C)[C@@H]12 [PCM-0215047] | 66.9%
27 | C[C@H]1[C@H](C)CC[C@]2(C(=O)O)CC[C@]3(C)C(=CC[C@@H]4[C@@]5(C)CCC(=O)C(C)(C)[C@@H]5CC[C@]43C)[C@H]12 [PCM-0215048] | 7%
28 | C[C@@]12CC[C@@H]3[C@@](CC[C@H]4[C@@]3(C)CCC[C@@]4(C)C(=O)O)(CC1=O)C2 [PCM-0215049] | -16.3%
29 | O=C1C(c2[nH]c3ccccc3c2O)=Nc2ccccc21 [PCM-0215050] | 28.8%
30 | COc1c(O[C@@H]2O[C@H](CO)[C@@H](O)[C@H](O)[C@H]2O)cc2occ(-c3ccc(O)cc3)c(=O)c2c1O [PCM-0215052] | -3.1%
31 | CC(=O)c1ccc(O)c(C(=O)O)c1 [PCM-0215053] | -9.3%
32 | CC(=O)O[C@]1(C)CC[C@@]23C[C@@H]1C(C)(C)[C@@H]2CC[C@H]3C [PCM-0215054] | 10.9%
33 | O=C(O)CCc1c[nH]c2ccccc12 [PCM-0215055] | -34.2%
34 | CC(=O)Oc1cc(C)c(OC(C)=O)c2ccccc12 [PCM-0215056] | -25.7%
35 | NC(=O)c1ccc[n+]([O-])c1 [PCM-0215057] | 5.4%
36 | COC(=O)c1cc(OC)c(O)c(OC)c1 [PCM-0215058] | -17.1%
37 | CC(C)c1cccc(O)c(=O)c1 [PCM-0215059] | 3.9%
38 | C[C@H](CC[C@@]1(O)O[C@H]2C[C@H]3[C@@H]4CC=C5C[C@@H](O[C@@H]6O[C@H](CO)[C@@H](O[C@@H]7O[C@@H](C)[C@H](O)[C@@H](O)[C@H]7O)[C@H](O)[C@H]6O[C@@H]6O[C@@H](C)[C@H](O)[C@@H](O)[C@H]6O)CC[C@]5(C)[C@H]4CC[C@]3(C)[C@H]2[C@@H]1C)CO[C@@H]1O[C@H](CO)[C@@H](O)[C@H](O)[C@H]1O [PCM-0215060] | -28%
39 | Clc1ncnc2nc[nH]c12 [PCM-0215064] | 9.3%
40 | Cc1cn([C@H]2C[C@H](O)[C@@H](CO)O2)c(=O)[nH]c1=O [PCM-0215065] | -11.7%
41 | CC(=O)Oc1cccc2ccccc12 [PCM-0215066] | -21%
42 | CC(=O)c1ccc(O)cc1O [PCM-0215067] | 9.3%
43 | COc1cc(C=O)cc(OC)c1O [PCM-0215069] | -33.5%
44 | O=C1CCc2ccc(O)cc2N1 [PCM-0215070] | 9.3%
45 | OC[C@H]1O[C@H](OC[C@H]2OC(O)[C@H](O)[C@@H](O)[C@@H]2O)[C@H](O)[C@@H](O)[C@H]1O (some centres unmarked) [PCM-0215071] | -21.8%
46 | O=c1ccn([C@@H]2O[C@H](CO)[C@@H](O)[C@@H]2O)c(=O)[nH]1 [PCM-0215072] | 5.4%
47 | OC[C@@H](O)[C@@H](O[C@H]1O[C@H](CO)[C@@H](O)[C@H](O)[C@H]1O)[C@H](O)[C@@H](O)CO [PCM-0215074] | -16.3%

Row | Compound | inhibition at 10 µM
48 | O=C(O)c1ccc(O)c(O)c1 [PCM-0215076] | 2.8%
49 | COc1cc(C=O)ccc1OC(C)=O [PCM-0215077] | -10.1%
50 | CC1(C)[C@H]2CC[C@]1(C)[C@H](O)C2 [PCM-0215078] | -20.2%
51 | CO/N=C(\C(=O)N[C@@H]1C(=O)N2C(C(=O)OC(C)OC(C)=O)=C(COC(N)=O)CS[C@H]12)c1ccco1 (some centres unmarked) [PCM-0215079] | 2.8%
52 | CC(=O)O [PCM-0215080] | -2.3%
53 | CC/C=C(\C(=O)N[C@@H]1C(=O)N2C(C(=O)OCOC(=O)C(C)(C)C)=C(COC(N)=O)CS[C@H]12)c1csc(N)n1 [PCM-0215081] | 8.6%
54 | O=c1[nH]c(=O)n([C@H]2C[C@H](O)[C@@H](CO)O2)cc1/C=C/Br [PCM-0215082] | 7.7%
55 | COC(=O)c1ccc(O)cc1 [PCM-0215083] | -5.4%
56 | O[C@@H]1[C@H](O)[C@@H](O)CO[C@H]1O [PCM-0215084] | 0.8%
57 | CC1=CC(=O)CC(C)(C)C1=O [PCM-0215085] | 7.8%
58 | CCOC(=O)c1ccc(O)c(OC)c1 [PCM-0215087] | -7.8%
59 | COC(=O)CC[C@@H](C)[C@H]1CC[C@H]2[C@@H]3[C@H](O)C[C@@H]4C[C@H](O)CC[C@]4(C)[C@H]3C[C@H](O)[C@]12C [PCM-0215088] | -4.7%
60 | Cc1ccc(C(C)C)cc2c(C)ccc1-2 [PCM-0215089] | 10.1%
61 | CO/N=C(\C(=O)N[C@@H]1C(=O)N2C(C(=O)O)=CCS[C@H]12)c1csc(N)n1 [PCM-0215091] | 7.8%
62 | C1CNCCNCCNCCN1 [PCM-0215094] | -4.7%
63 | C=C[C@@H]1C[C@]1(NC(=O)[C@@H]1C[C@@H](Oc2ncc(OC)c3ccc(Cl)cc23)CN1C(=O)[C@@H](NC(=O)OC(C)(C)C)C(C)(C)C)C(=O)NS(=O)(=O)C1CC1 [PCM-0215095] | -4.7%
64 | C[C@]1(COc2ccc(N3CCC(Oc4ccc(OC(F)(F)F)cc4)CC3)cc2)Cn2cc([N+](=O)[O-])nc2O1 [PCM-0215096] | -1.5%
65 | COc1ccc2c(O[C@@H]3C[C@H]4C(=O)N[C@]5(C(=O)NS(=O)(=O)C6CC6)C[C@H]5/C=C\CCCCN(C)C(=O)[C@@H]4C3)cc(-c3nc(C(C)C)cs3)nc2c1C [PCM-0215097] | 55.6%
66 | COc1ccc(-c2oc3cc(O)cc(O)c3c(=O)c2O)cc1 [PCM-0215098] | 5.5%
67 | CC[C@H]1OC(=O)[C@H](C)[C@@H](O[C@H]2C[C@@](C)(OC)[C@@H](O)[C@H](C)O2)[C@H](C)[C@@H](O[C@@H]2O[C@H](C)C[C@H](N(C)C)[C@H]2O)[C@](C)(O)C[C@@H](C)CN[C@H](C)[C@@H](O)[C@]1(C)O [PCM-0215099] | -13.2%
68 | CN(C)N(C)C(=O)[C@@]1(Cc2ccccc2)CCCN(C(=O)[C@@H](Cc2c[nH]c3ccccc23)NC(=O)C(C)(C)N)C1 [PCM-0215100] | 4.6%
